Here are results for 14 compounds from patent publication US12679836B2, “4H-pyrrolo[3,2-c]pyridin-4-one compounds” (Bayer Aktiengesellschaft, priority 2019, dated 2026).

One experiment has as its target T1, Bub1 (Homo sapiens, UniProt O43683).
T1 construct: catalytic domain of human Bub1 (amino acids 704-1085); His6 (N); made in house; host or cells: Hi5 insect cells
As to the kind of experiment: Bub1 TR-FRET high ATP kinase assay. Format: biochemical. The settings on record: Bub1 high ATP (2 mM) IC50 [mol/l], 2 mM ATP. The method, boiled down: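 Recombinant His6-tagged human Bub1 catalytic domain (aa 704-1085), from Hi5 insect cells, phosphorylating a biotinylated peptide substrate at high ATP concentration. TR-FRET read-out.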

Experiment [1] deals with T2, EGFR with insertion of SVD between D770 and N771 (EGFR ins SVD) (Homo sapiens, UniProt P00533, DUP768-770).
T2 construct: made in house; host or cells: Sf9 insect cells (baculovirus)
As to the kind of experiment: Exon20-Mutant-EGFR(D770_N771insSVD) kinase assay (TR-FRET). Format: biochemical. Particulars: 2 mM ATP, several values per example where printed.

The target in the next experiment is Ba/F3-EGFR-WT cells (Homo sapiens, UniProt P00533). As to the kind of experiment: Ba/F3 cell survival assay (Cell Titer-Glo), WT EGFR. Format: cell-based. The settings on record: without IL-3, with 10 ng/mL EGF, 48 h; read-out: BA/F3 (wild type) IC50. The method, boiled down:
(§1)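 Ba/F3 cells stably expressing WT EGFR or EGFR-insSVD from retroviral transduction were grown without IL-3 on 10 ng/mL EGF. Cells were plated at 4000 cells/well, treated with compound for 48 h at 37° C, and viability was read by CellTiter-Glo luminescence.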
A general note: Cellular ATP, detected with luciferase, serves as a proxy for viable cell number.

For a further experiment, the target named is Ba/F3-EGFR-insSVD cells (Homo sapiens, UniProt P00533, DUP768-770, cells depend on it). The experiment can be described thus: Ba/F3 cell survival assay (Cell Titer-Glo), EGFR-insSVD. In kind it is cell-based. Particulars: without IL-3, with 10 ng/mL EGF, 48 h; read-out: BA/F3 (insSVD) IC50. The method, boiled down:
as §1

Chain of Ba/F3-EGFR-WT cells (P00533 whole entry, stated change not applied): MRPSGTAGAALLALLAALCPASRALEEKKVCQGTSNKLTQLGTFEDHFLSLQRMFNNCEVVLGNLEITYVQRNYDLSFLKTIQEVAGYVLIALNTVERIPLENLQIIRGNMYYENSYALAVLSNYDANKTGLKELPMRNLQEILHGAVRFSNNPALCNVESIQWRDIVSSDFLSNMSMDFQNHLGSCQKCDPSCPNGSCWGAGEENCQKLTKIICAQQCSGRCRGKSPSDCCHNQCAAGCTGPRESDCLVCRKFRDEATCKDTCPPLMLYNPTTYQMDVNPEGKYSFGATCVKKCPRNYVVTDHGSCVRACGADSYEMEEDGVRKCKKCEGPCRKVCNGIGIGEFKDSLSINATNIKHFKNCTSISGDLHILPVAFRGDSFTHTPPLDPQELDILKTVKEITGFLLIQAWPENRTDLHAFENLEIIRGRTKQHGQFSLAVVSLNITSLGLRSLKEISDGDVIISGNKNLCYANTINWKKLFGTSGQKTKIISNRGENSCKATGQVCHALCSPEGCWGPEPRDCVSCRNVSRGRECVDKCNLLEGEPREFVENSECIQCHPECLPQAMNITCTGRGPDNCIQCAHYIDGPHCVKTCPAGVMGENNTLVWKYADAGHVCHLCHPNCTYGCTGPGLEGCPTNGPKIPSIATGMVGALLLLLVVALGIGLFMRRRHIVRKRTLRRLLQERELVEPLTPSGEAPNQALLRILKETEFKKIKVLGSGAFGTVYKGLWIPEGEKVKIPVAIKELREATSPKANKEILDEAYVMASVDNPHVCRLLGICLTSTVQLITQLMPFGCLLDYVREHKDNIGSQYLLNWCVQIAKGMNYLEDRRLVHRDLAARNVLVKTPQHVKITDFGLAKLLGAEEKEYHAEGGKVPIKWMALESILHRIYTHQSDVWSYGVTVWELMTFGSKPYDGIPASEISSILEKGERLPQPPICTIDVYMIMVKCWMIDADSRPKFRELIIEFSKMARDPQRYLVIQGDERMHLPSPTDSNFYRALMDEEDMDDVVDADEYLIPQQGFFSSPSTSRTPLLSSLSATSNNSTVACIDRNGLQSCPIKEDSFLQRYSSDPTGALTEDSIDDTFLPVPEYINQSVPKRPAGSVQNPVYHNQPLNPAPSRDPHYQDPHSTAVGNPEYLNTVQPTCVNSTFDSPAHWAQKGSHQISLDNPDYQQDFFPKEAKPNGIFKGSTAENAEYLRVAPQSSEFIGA
T1 sequence (O43683 704-1085): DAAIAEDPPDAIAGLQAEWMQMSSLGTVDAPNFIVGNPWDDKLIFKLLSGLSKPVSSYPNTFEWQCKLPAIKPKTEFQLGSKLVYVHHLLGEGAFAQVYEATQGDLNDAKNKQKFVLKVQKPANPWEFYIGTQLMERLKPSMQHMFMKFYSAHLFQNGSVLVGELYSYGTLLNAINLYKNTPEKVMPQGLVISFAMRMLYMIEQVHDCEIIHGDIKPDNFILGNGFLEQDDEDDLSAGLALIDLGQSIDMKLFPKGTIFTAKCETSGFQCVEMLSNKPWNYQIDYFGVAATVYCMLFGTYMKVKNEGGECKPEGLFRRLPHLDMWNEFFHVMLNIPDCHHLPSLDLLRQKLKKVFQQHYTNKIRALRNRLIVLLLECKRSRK
Chain of Ba/F3-EGFR-insSVD cells (P00533 with tags, fused parts or gaps DUP768-770): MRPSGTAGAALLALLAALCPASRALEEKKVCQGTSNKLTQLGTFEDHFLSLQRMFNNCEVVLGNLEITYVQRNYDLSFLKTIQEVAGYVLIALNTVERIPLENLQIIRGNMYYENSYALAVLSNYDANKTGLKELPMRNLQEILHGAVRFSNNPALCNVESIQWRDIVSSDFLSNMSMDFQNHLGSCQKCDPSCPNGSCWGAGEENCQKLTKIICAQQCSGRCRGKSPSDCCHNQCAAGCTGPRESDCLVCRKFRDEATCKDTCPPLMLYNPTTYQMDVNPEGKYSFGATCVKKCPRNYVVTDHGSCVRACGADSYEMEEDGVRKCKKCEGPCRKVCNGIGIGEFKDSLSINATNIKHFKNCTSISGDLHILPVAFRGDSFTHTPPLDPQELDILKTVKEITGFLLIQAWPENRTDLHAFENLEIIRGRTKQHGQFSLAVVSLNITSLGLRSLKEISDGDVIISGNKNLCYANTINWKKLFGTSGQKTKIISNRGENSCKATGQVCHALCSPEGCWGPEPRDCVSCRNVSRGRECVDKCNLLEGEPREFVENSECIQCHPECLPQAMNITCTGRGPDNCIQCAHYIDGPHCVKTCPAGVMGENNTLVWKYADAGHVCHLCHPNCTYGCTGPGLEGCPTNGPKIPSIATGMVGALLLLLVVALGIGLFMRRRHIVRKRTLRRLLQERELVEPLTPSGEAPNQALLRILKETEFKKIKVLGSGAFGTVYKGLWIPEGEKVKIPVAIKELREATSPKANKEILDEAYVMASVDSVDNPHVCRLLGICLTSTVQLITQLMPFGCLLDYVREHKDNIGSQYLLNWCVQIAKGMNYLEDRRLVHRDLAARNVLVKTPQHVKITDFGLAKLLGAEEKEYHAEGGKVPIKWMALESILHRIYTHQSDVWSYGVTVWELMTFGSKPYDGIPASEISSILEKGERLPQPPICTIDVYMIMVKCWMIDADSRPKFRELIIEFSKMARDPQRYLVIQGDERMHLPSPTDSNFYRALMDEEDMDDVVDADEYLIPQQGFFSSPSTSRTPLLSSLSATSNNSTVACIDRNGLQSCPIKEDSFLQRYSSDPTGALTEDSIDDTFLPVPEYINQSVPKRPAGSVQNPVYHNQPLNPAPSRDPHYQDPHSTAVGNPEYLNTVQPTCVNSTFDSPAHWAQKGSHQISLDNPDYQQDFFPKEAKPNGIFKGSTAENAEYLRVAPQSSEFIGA
T2 sequence (P00533 with tags, fused parts or gaps DUP768-770): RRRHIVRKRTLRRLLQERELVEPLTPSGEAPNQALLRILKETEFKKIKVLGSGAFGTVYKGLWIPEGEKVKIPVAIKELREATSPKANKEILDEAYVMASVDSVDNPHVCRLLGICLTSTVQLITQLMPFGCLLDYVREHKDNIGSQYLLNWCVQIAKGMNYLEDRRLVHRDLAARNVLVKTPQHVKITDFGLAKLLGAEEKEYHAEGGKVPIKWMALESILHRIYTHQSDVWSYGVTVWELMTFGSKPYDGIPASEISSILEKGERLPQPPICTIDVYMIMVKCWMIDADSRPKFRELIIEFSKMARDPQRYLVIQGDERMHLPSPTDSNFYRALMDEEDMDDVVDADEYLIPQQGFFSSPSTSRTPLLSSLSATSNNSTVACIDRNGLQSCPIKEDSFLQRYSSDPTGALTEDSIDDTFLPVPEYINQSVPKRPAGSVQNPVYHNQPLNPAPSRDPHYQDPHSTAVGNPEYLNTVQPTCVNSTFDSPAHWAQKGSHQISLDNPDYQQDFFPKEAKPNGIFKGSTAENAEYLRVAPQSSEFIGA

In general, IC50 refers to the concentration at which inhibition is half-maximal. A lower IC50 goes with higher potency. The compound `Cc1c(Cl)cccc1Nc1c(-c2ccncc2OCC2COCCO2)[nH]c2c1C(=O)NCC2` (centres unmarked) [Example 10, 3-(3-chloro-2-methylanilino)-2-{3-[(1,4-dioxan-2-yl)methoxy]pyridin-4-yl}-1,5,6,7-tetrahydro-4H-pyrrolo[3,2-c]pyridin-4-one] returned an IC50 on Bub1 of 1780 nM. In addition, the “mutEGFR (D770_N771insSVD) kinase assay IC50” value (from here on “mutEGFR”) in experiment [1] was found to be 0.669 nM. Also, the results for the GI50 at Ba/F3-EGFR-WT cells and on Ba/F3-EGFR-insSVD cells were 496 nM and 11.1 nM, respectively.
The like results for `COc1c(Cl)cccc1Nc1c(-c2ccncc2OC[C@H]2COCCN2C)[nH]c2c1C(=O)NCC2` [Example 11, 3-(3-chloro-2-methoxyanilino)-2-(3-{[(3R)-4-methylmorpholin-3-yl]methoxy}pyridin-4-yl)-1,5,6,7-tetrahydro-4H-pyrrolo[3,2-c]pyridin-4-one] were, in that order, 4330 nM, 0.286 nM, 701 nM and 18.7 nM.
At Bub1, `COc1c(F)cccc1Nc1c(-c2ccncc2OCC2CN(C)CCO2)[nH]c2c1C(=O)NCC2` (centres unmarked) [Example 12, 3-(3-fluoro-2-methoxyanilino)-2-{3-[(4-methylmorpholin-2-yl)methoxy]pyridin-4-yl}-1,5,6,7-tetrahydro-4H-pyrrolo[3,2-c]pyridin-4-one] registered an IC50 greater than 20000 nM. Further, the “mutEGFR” value in experiment [1] amounted to 0.0794 nM. For the same compound, the GI50 on Ba/F3-EGFR-WT cells was 574 nM; on Ba/F3-EGFR-insSVD cells, 22.8 nM.
As to `COc1c(Cl)cccc1Nc1c(-c2ccncc2OCC2CN(C)CCO2)[nH]c2c1C(=O)NCC2` (centres unmarked) [Example 15, 3-(3-chloro-2-methoxyanilino)-2-{3-[(4-methylmorpholin-2-yl)methoxy]pyridin-4-yl}-1,5,6,7-tetrahydro-4H-pyrrolo[3,2-c]pyridin-4-one], the IC50 against Bub1 was greater than 20000 nM. Besides, the “mutEGFR” value in experiment [1] turned out to be 0.151 nM. For the same compound, the GI50 on Ba/F3-EGFR-WT cells was determined as 426 nM; on Ba/F3-EGFR-insSVD cells, 15.3 nM.
Turning to `COc1c(Cl)cc(F)cc1Nc1c(-c2ccncc2OCC2CN(C)CCO2)[nH]c2c1C(=O)NCC2` (centres unmarked) [Example 18, 3-(3-chloro-5-fluoro-2-methoxyanilino)-2-(3-{[4-methylmorpholin-2-yl]methoxy}pyridin-4-yl)-1,5,6,7-tetrahydro-4H-pyrrolo[3,2-c]pyridin-4-one], at Bub1, the IC50 was greater than 20000 nM. The “mutEGFR” value in experiment [1] turned out to be 0.147 nM. The GI50 amounted to 579 nM at Ba/F3-EGFR-WT cells and 27.9 nM at Ba/F3-EGFR-insSVD cells.
The compound `COc1c(Cl)cc(F)cc1Nc1c(-c2ccncc2OCC2COCCO2)[nH]c2c1C(=O)NCC2` (centres unmarked) [Example 19, 3-(3-chloro-5-fluoro-2-methoxyanilino)-2-(3-{[1,4-dioxan-2-yl]methoxy}pyridin-4-yl)-1,5,6,7-tetrahydro-4H-pyrrolo[3,2-c]pyridin-4-one] registered an IC50 at Bub1 of 11400 nM. Also, in experiment [1], the “mutEGFR” value is 0.113 nM. Besides, the GI50 on Ba/F3-EGFR-WT cells came to 532 nM; on Ba/F3-EGFR-insSVD cells, 29.1 nM.
Compound `COc1c(F)cccc1Nc1c(-c2ccncc2OC[C@@H]2CN(CC(F)F)CCO2)[nH]c2c1C(=O)NCC2` [Example 22, 2-(3-{[(2S)-4-(2,2-difluoroethyl)morpholin-2-yl]methoxy}pyridin-4-yl)-3-(3-fluoro-2-methoxyanilino)-1,5,6,7-tetrahydro-4H-pyrrolo[3,2-c]pyridin-4-one] returned an IC50 against Bub1 greater than 20000 nM. For the same compound, the “mutEGFR” value in experiment [1] was 0.153 nM. Further, the GI50 worked out at 544 nM on Ba/F3-EGFR-WT cells and 41.9 nM on Ba/F3-EGFR-insSVD cells.
Take `COc1c(F)cccc1Nc1c(-c2ccncc2OC[C@@H]2CN(CC(F)(F)F)CCO2)[nH]c2c1C(=O)NCC2` [Example 23, 3-(3-fluoro-2-methoxyanilino)-2-(3-{[(2S)-4-(2,2,2-trifluoroethyl)morpholin-2-yl]methoxy}pyridin-4-yl)-1,5,6,7-tetrahydro-4H-pyrrolo[3,2-c]pyridin-4-one]: the IC50 at Bub1 was greater than 20000 nM. Moreover, in experiment [1], the “mutEGFR” value amounted to 0.169 nM. Also, the GI50 at Ba/F3-EGFR-WT cells was 648 nM; on Ba/F3-EGFR-insSVD cells it was 71 nM.
The like results for `COc1c(Cl)cccc1Nc1c(-c2ccncc2OCCC2COCCO2)[nH]c2c1C(=O)NCC2` (centres unmarked) [Example 24, 3-(3-chloro-2-methoxyanilino)-2-{3-[2-(4-dioxan-2-yl)ethoxy]pyridin-4-yl}-1,5,6,7-tetrahydro-4H-pyrrolo[3,2-c]pyridin-4-one] were, in that order, 1940 nM, 0.261 nM, 444 nM and 34.6 nM.
The like results for `COc1c(Cl)cc(F)cc1Nc1c(-c2ccncc2OC[C@@H]2CN(C)CCO2)[nH]c2c1C(=O)NCC2` [Example 27, 3-(3-chloro-5-fluoro-2-methoxyanilino)-2-(3-{[(2S)-4-methylmorpholin-2-yl]methoxy}pyridin-4-yl)-1,5,6,7-tetrahydro-4H-pyrrolo[3,2-c]pyridin-4-one] were, in that order, greater than 20000 nM, 0.118 nM, 502 nM and 16.9 nM.
On Bub1, `COc1c(Cl)cc(F)cc1Nc1c(-c2ccncc2OC[C@@H]2CN(CC(F)(F)F)CCO2)[nH]c2c1C(=O)NCC2` [Example 28, 3-(3-chloro-5-fluoro-2-methoxyanilino)-2-(3-{[(2S)-4-(2,2,2-trifluoroethyl)morpholin-2-yl]methoxy}pyridin-4-yl)-1,5,6,7-tetrahydro-4H-pyrrolo[3,2-c]pyridin-4-one] displayed an IC50 greater than 20000 nM. For the same compound, the “mutEGFR” value in experiment [1] worked out at 0.249 nM. In addition, the GI50 at Ba/F3-EGFR-WT cells was found to be 1240 nM; on Ba/F3-EGFR-insSVD cells, 126 nM.
Take `COc1c(F)cccc1Nc1c(-c2ccncc2OC[C@H]2COCCN2C)[nH]c2c1C(=O)NCC2` [Example 37, 3-(3-fluoro-2-methoxyanilino)-2-(3-{[(3R)-4-methylmorpholin-3-yl]methoxy}pyridin-4-yl)-1,5,6,7-tetrahydro-4H-pyrrolo[3,2-c]pyridin-4-one]: the IC50 on Bub1 came out at 19000 nM. The “mutEGFR” value in experiment [1] was found to be 0.4 nM. Moreover, the GI50 at Ba/F3-EGFR-WT cells was 348 nM; at Ba/F3-EGFR-insSVD cells, 35.7 nM.
For the compound `Cc1c(F)cccc1Nc1c(-c2ccncc2OCC2COC(C)(C)CO2)[nH]c2c1C(=O)NCC2` (centres unmarked) [Example 38, 2-[3-[(5,5-dimethyl-1,4-dioxan-2-yl)methoxy]-4-pyridyl]-3-(3-fluoro-2-methyl-anilino)-1,5,6,7-tetrahydropyrrolo[3,2-c]pyridin-4-one], the IC50 on Bub1 is greater than 5710 nM. For the same compound, the “mutEGFR” value in experiment [1] stood at 0.119 nM. Besides, the GI50 on Ba/F3-EGFR-WT cells was determined as 419 nM; at Ba/F3-EGFR-insSVD cells, 29.3 nM.
Take `O=C1NCCc2[nH]c(-c3ccncc3OCC3COCCO3)c(Nc3cccc(F)c3CC(F)F)c21` (centres unmarked) [Example 40, 3-[2-(2,2-difluoroethyl)-3-fluoro-anilino]-2-[3-(1,4-dioxan-2-ylmethoxy)-4-pyridyl]-1,5,6,7-tetrahydropyrrolo[3,2-c]pyridin-4-one]: on Bub1, the IC50 was 8620 nM. Moreover, in experiment [1], the “mutEGFR” value is 0.115 nM. Also, the values for the GI50 at Ba/F3-EGFR-WT cells and on Ba/F3-EGFR-insSVD cells were 867 nM and 119 nM, respectively.
